These results are taken from US20230143612A1 (Arbutus Biopharma Corporation, priority 2020, published 2023).

SMILES strings stand for the structures.

PD-L1 His protein / PD-1 Fc protein, sequence (Q9NZQ7 19-238 limits assumed): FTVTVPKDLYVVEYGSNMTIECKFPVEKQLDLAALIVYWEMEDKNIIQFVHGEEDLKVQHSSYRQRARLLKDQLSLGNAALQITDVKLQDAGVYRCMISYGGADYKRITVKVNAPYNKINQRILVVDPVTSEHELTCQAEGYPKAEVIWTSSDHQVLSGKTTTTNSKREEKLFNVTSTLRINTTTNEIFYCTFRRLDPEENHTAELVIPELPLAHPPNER

The experiment concerns the target PD-L1 His protein / PD-1 Fc protein (Homo sapiens, UniProt Q9NZQ7). The experiment in a line: HTRF Assay (PD-1/PD-L1 interaction). Particulars: PD-L1 His 6 nM, PD-1 Fc 6 nM. It counts as binding. The essentials: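 HTRF: PD-L1 His (6 nM final), compound (3-fold dilutions, 20 μM to 0.001 μM final) and PD-1 Fc (6 nM final) preincubated 15 min at room temperature. Anti-human IgG-XL665 and anti-6HIS Tb cryptate (mixed at 6.7 nM and 0.35 nM) then added for 1 h at room temperature before reading.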
On the technique in general: TR-FRET usually uses a lanthanide donor and a delayed reading to cut background.
As a reminder, the IC50 is the concentration needed to halve the response being measured. High values mean a need for much substance, low ones inhibition by little substance. `Cc1c(-c2ccn3c(=O)c(CNC[C@@H]4CCC(=O)N4)cnc3c2)cccc1-c1cccc(-c2ccc(CNC[C@@H]3CCC(=O)N3)c(OC(F)(F)F)c2)c1Cl` [Example 88, 8-(2′-Chloro-2-methyl-4″-(((((S)-5-oxopyrrolidin-2-yl)methyl)amino)methyl)-3″-(trifluoromethoxy)-[1,1′:3′,1″-terphenyl]-3-yl)-3-(((((S)-5-oxopyrrolidin-2-yl)methyl)amino)methyl)-4H-pyrido[1,2-a]pyrimidin-4-one] gave an IC50 of 11 nM. The value for `CNc1nc(-c2cccc(-c3cccc(-c4ccn5c(=O)c(CNC[C@@H]6CCC(=O)N6)cnc5c4)c3Cl)c2Cl)ccc1CNC[C@@H]1CCC(=O)N1` [Example 89, 8-(2,2′-Dichloro-3′-(6-(methylamino)-5-(((((S)-5-oxopyrrolidin-2-yl)methyl)amino)methyl)pyridin-2-yl)-[1,1′-biphenyl]-3-yl)-3-(((((S)-5-oxopyrrolidin-2-yl)methyl)amino)methyl)-4H-pyrido[1,2-a]pyrimidin-4-one] was 3.5 nM. Next, `COc1cc(-c2cccc(-c3cccc(-c4ccn5c(=O)c(CNC[C@@H]6CCC(=O)N6)cnc5c4)c3Cl)c2Cl)ccc1CNC[C@@H]1CCC(=O)N1` [Example 90, 8-(2,2′-Dichloro-3″-methoxy-4″-(((((S)-5-oxopyrrolidin-2-yl)methyl)amino)methyl)-[1,1′:3′,1″-terphenyl]-3-yl)-3-(((((S)-5-oxopyrrolidin-2-yl)methyl)amino)methyl)-4H-pyrido[1,2-a]pyrimidin-4-one]: 1.5 nM; `COc1nc(-c2cccc(-c3cccc(-c4ccn5c(=O)c(CN6CC[C@H](C(=O)O)C6)cnc5c4)c3Cl)c2Cl)cnc1CN1CC(CO)C1` [Example 92, (S)-1-((8-(2,2′-Dichloro-3′-(5-((3-(hydroxymethyl)azetidin-1-yl)methyl)-6-methoxypyrazin-2-yl)-[1,1′-biphenyl]-3-yl)-4-oxo-4H-pyrido[1,2-a]pyrimidin-3-yl)methyl)pyrrolidine-3-carboxylic acid]: 0.3 nM. The value for `COc1nc(-c2cccc(-c3cccc(-c4ccn5c(=O)c(CN6CC(C(=O)O)C6)cnc5c4)c3Cl)c2Cl)cnc1CN1CC(CO)C1` [Example 93, 1-((8-(2,2′-Dichloro-3′-(5-((3-(hydroxymethyl)azetidin-1-yl)methyl)-6-methoxypyrazin-2-yl)-[1,1′-biphenyl]-3-yl)-4-oxo-4H-pyrido[1,2-a]pyrimidin-3-yl)methyl)azetidine-3-carboxylic acid] was 0.3 nM; that for `COc1nc(-c2cccc(-c3cccc(-c4ccn5c(=O)c(CN6CC[C@H](C(=O)O)C6)cnc5c4)c3Cl)c2Cl)ccc1CNC[C@@H]1CCC(=O)N1` [Example 94, (S)-1-((8-(2,2′-Dichloro-3′-(6-methoxy-5-(((((S)-5-oxopyrrolidin-2-yl)methyl)amino)methyl)pyridin-2-yl)-[1,1′-biphenyl]-3-yl)-4-oxo-4H-pyrido[1,2-a]pyrimidin-3-yl)methyl)pyrrolidine-3-carboxylic acid] was 0.3 nM.

`COc1nc(-c2cccc(-c3cccc(-c4ccn5c(=O)c(CNC[C@@H]6CCC(=O)N6)cnc5c4)c3Cl)c2C(F)(F)F)ccc1CNC[C@@H]1CCC(=O)N1` [Example 95, 8-(2-Chloro-3′-(6-methoxy-5-(((((S)-5-oxopyrrolidin-2-yl)methyl)amino)methyl)pyridin-2-yl)-2′-(trifluoromethyl)-[1,1′-biphenyl]-3-yl)-3-(((((S)-5-oxopyrrolidin-2-yl)methyl)amino)methyl)-4H-pyrido[1,2-a]pyrimidin-4-one] displayed a 50% inhibitory concentration (IC50) of 23 nM.

For the compound `COc1nc(-c2cccc(-c3cccc(-c4ccn5c(=O)c(CNC[C@@H]6CCC(=O)N6)cnc5c4)c3C)c2C(F)(F)F)ccc1CNC[C@@H]1CCC(=O)N1` [Example 96, 8-(3′-(6-Methoxy-5-(((((S)-5-oxopyrrolidin-2-yl)methyl)amino)methyl)pyridin-2-yl)-2-methyl-2′-(trifluoromethyl)-[1,1′-biphenyl]-3-yl)-3-(((((S)-5-oxopyrrolidin-2-yl)methyl)amino)methyl)-4H-pyrido[1,2-a]pyrimidin-4-one], the IC50 was 68 nM. The value for `COc1nc(-c2cc(F)cc(-c3cccc(-c4ccn5c(=O)c(CNC[C@@H]6CCC(=O)N6)cnc5c4)c3C)c2Cl)ccc1CNC[C@@H]1CCC(=O)N1` [Example 97, 8-(2′-Chloro-5′-fluoro-3′-(6-methoxy-5-(((((S)-5-oxopyrrolidin-2-yl)methyl)amino)methyl)pyridin-2-yl)-2-methyl-[1,1′-biphenyl]-3-yl)-3-(((((S)-5-oxopyrrolidin-2-yl)methyl)amino)methyl)-4H-pyrido[1,2-a]pyrimidin-4-one] was 5.1 nM. Next, `COc1nc(-c2cccc(-c3cccc(-c4ccn5c(=O)c(CN6CC(C(=O)O)C6)cnc5c4)c3Cl)c2Cl)ccc1CNC[C@@H]1CCC(=O)N1` [Example 98, (S)-1-((8-(2,2′-Dichloro-3′-(6-methoxy-5-((((5-oxopyrrolidin-2-yl)methyl)amino)methyl)pyridin-2-yl)-[1,1′-biphenyl]-3-yl)-4-oxo-4H-pyrido[1,2-a]pyrimidin-3-yl)methyl)azetidine-3-carboxylic acid]: 0.3 nM; `COc1nc(-c2cccc(-c3cccc(-c4cn5cc(CNC[C@@H]6CCC(=O)N6)ccc5n4)c3Cl)c2Cl)ccc1CNC[C@@H]1CCC(=O)N1` [Example 99, (S)-5-((((6-(2,2′-Dichloro-3′-(6-(((((S)-5-oxopyrrolidin-2-yl)methyl)amino)methyl)imidazo[1,2-a]pyridin-2-yl)-[1,1′-biphenyl]-3-yl)-2-methoxypyridin-3-yl)methyl)amino)methyl)pyrrolidin-2-one]: 4.8 nM; `COc1nc(-c2cccc(-c3cccc(-c4cn5cc(CNCCO)ccc5n4)c3Cl)c2Cl)ccc1CNCCO` [Example 100, 2-(((2-(2,2′-Dichloro-3′-(5-(((2-hydroxyethyl)amino)methyl)-6-methoxypyridin-2-yl)-[1,1′-biphenyl]-3-yl)imidazo[1,2-a]pyridin-6-yl)methyl)amino)ethan-1-ol]: 4.3 nM. The value for `COC(=O)[C@H](CO)NCc1cnc2cc(-c3cccc(-c4cccc(-c5ccc(CNC[C@@H]6CCC(=O)N6)c(OC)n5)c4Cl)c3Cl)ccn2c1=O` [Example 101, Methyl ((8-(2,2′-dichloro-3′-(6-methoxy-5-(((((S)-5-oxopyrrolidin-2-yl)methyl)amino)methyl)pyridin-2-yl)-[1,1′-biphenyl]-3-yl)-4-oxo-4H-pyrido[1,2-a]pyrimidin-3-yl)methyl)-L-serinate] was 2.1 nM; that for `COc1nc(-c2cccc(-c3cccc(-c4ccn5c(=O)c(CNC[C@@H]6CCC(=O)N6)cnc5c4)c3Cl)c2Cl)ccc1CNCCO` [Example 102, (S)-8-(2,2′-Dichloro-3′-(5-(((2-hydroxyethyl)amino)methyl)-6-methoxypyridin-2-yl)-[1,1′-biphenyl]-3-yl)-3-((((5-oxopyrrolidin-2-yl)methyl)amino)methyl)-4H-pyrido[1,2-a]pyrimidin-4-one] was 7.1 nM. `COc1nc(-c2cccc(-c3cccc(-c4ccn5c(=O)c(CNC[C@@H]6CCC(=O)N6)cnc5c4)c3Cl)c2Cl)ccc1CNCCNC(C)=O` [Example 103, (S)—N-(2-(((6-(2,2′-Dichloro-3′-(4-oxo-3-((((5-oxopyrrolidin-2-yl)methyl)amino)methyl)-4H-pyrido[1,2-a]pyrimidin-8-yl)-[1,1′-biphenyl]-3-yl)-2-methoxypyridin-3-yl)methyl)amino)ethyl)acetamide] had an IC50 of 5 nM. Next, `COc1cc(-c2cccc(-c3cccc(-c4ccn5c(=O)c(CNC[C@@H]6CCC(=O)N6)cnc5c4)c3Cl)c2Cl)cc(F)c1CNC[C@@H]1CCC(=O)N1` [Example 104, 8-(2,2′-Dichloro-3″-fluoro-5″-methoxy-4″-(((((S)-5-oxopyrrolidin-2-yl)methyl)amino)methyl)-[1,1′:3′,1″-terphenyl]-3-yl)-3-(((((S)-5-oxopyrrolidin-2-yl)methyl)amino)methyl)-4H-pyrido[1,2-a]pyrimidin-4-one]: 8.8 nM; `COc1c(CNC[C@@H]2CCC(=O)N2)ccc(-c2cccc(-c3cccc(-c4ccn5c(=O)c(CNC[C@@H]6CCC(=O)N6)cnc5c4)c3Cl)c2Cl)c1F` [Example 105, 8-[2-Chloro-3-[2-chloro-3-[2-fluoro-3-methoxy-4-[[[(2S)-5-oxopyrrolidin-2-yl]methylamino]methyl]phenyl]phenyl]phenyl]-3-[[[(2S)-5-oxopyrrolidin-2-yl]methylamino]methyl]pyrido[1,2-a]pyrimidin-4-one]: 5.9 nM. The value for `COc1cc(-c2cccc(-c3cccc(-c4ccn5c(=O)c(CNC[C@@H]6CCC(=O)N6)cnc5c4)c3Cl)c2Cl)c(F)cc1CNC[C@@H]1CCC(=O)N1` [Example 106, 8-(2,2′-Dichloro-2″-fluoro-5″-methoxy-4″-(((((S)-5-oxopyrrolidin-2-yl)methyl)amino)methyl)-[1,1′:3′,1″-terphenyl]-3-yl)-3-(((((S)-5-oxopyrrolidin-2-yl)methyl)amino)methyl)-4H-pyrido[1,2-a]pyrimidin-4-one] was 4.9 nM; that for `COc1nc(-c2cccc(-c3cccc(-c4ccn5c(=O)c(CNC[C@@H]6CCC(=O)N6)ccc5c4)c3Cl)c2Cl)cnc1CNC[C@@H]1CCC(=O)N1` [Example 107, 8-(2,2′-Dichloro-3′-(6-methoxy-5-(((((S)-5-oxopyrrolidin-2-yl)methyl)amino)methyl)pyrazin-2-yl)-[1,1′-biphenyl]-3-yl)-3-(((((S)-5-oxopyrrolidin-2-yl)methyl)amino)methyl)-4H-quinolizin-4-one] was 0.4 nM; that for `CSc1nc(-c2cccc(-c3cccc(-c4ccn5c(=O)c(CNC[C@@H]6CCC(=O)N6)cnc5c4)c3Cl)c2Cl)ccc1CNC[C@@H]1CCC(=O)N1` [Example 108, 8-(2,2′-Dichloro-3′-(6-(methylthio)-5-(((((S)-5-oxopyrrolidin-2-yl)methyl)amino)methyl)pyridin-2-yl)-[1,1′-biphenyl]-3-yl)-3-(((((S)-5-oxopyrrolidin-2-yl)methyl)amino)methyl)-4H-pyrido[1,2-a]pyrimidin-4-one] was 1 nM.
